Results reported in patent US5434132A, “Neuropeptide antagonists” (Imperial Cancer Research Technology, Ltd., priority 1988, dated 1995).
Like-named read-outs stand apart in the source and are kept apart here. Non-standard residues stand in square brackets, D forms with d. Residues, ends and D or L forms follow the SMILES beside them.

Key:
bombesin/GRP receptor = biological target: T1, bombesin/GRP receptor (Mus musculus, UniProt P21729); experiment: 125I-GRP binding to membrane preparations of Swiss 3T3 cells; set-up: species or system murine
T1 construct: Membrane protein (150 μg) prepared from Swiss 3T3 cells as described above; endogenous in cells; host or cells: Swiss 3T3 cells; membrane-enriched fraction prepared with 5 mM Mg2+
Protocol: Membrane preparation: Cultures in roller bottles were washed twice with 150 ml phosphate buffered saline (PBS) (0.14M NaCl, 5 mM KCl, 0.01M Na2 HPO4, 1.8 mM KH2 PO4; pH 7.2) at room temperature. The cells were then harvested at 4° C. by scraping into ice cold PBS containing 5 mM MgCl2, 1 mM [ethylenebis(oxyethylenenitrilo)]tetraacetic acid (EGTA), 1 mg/ml bacitracin, 10 ug/ml aprotonin, 1 mg/ml soybean trypsin inhibitor and 50 μM phenylmethylsulphonyl fluoride. All subsequent steps were carried out at 4° C. The cells were pelleted by centrifugation at 750 x g for 10 minutes and resuspended 5×10^6 /ml in solution A containing 50 mM 4-(2-Hydroxyethyl)-1-piperazineethanesulfonic acid (Hepes), 5 mM MgCl2, 1 mM EGTA, 1 mg/ml bacitracin, 10 μg/ml aprotonin, 1 mg/ml soybean trypsin inhibitor and 50 μM phenylmethylsulfonyl fluoride, adjusted to pH 7.4 with NaOH at 4° C. Cells were then disrupted using a Dounce homogeniser (A pestle) 75 strokes. The homogenate was centrifuged at 500 x g for 10 minutes to remove nuclear material and intact cells and the supernatant was centrifuged again at 30000 x g for 30 minutes. The resulting pellet, representing a membrane-enriched preparation was resuspended at a protein concentration of 5 to 10 mg/ml in solution A and stored in liquid nitrogen. For experiments, membranes were thawed and diluted to a concentration of 1 mg/ml with solution A.
Receptor binding assay: Binding assays were carried out in a total volume of 100 ul in binding medium containing 50 mM Hepes, 5 mM MgCl2, 1 mg/ml bacitracin and 1% bovine serum albumin (BSA), adjusted to pH 7.4 with NaOH, unless otherwise indicated. […] Non-specific binding was subtracted from the total binding to obtain specific binding. The membranes were incubated for either 10 minutes at 37° C. or 30 minutes: at 15° C. as indicated.
The binding reactions were terminated at the specified times by rapid filtration on GF/B glass fibre filters (Whatmann, 1.0 μm pore size). Each filter was washed five times with 5 ml of PBS containing 1% BSA at 4° C. (15 s total time) using a Millipore filtration apparatus. Before the addition of membranes the filters were soaked for 24 hours in 5% polyethylenimine at 4° C. and washed with 5 ml of PBS containing 1% BSA immediately prior to use. […] Radioactivity was determined with a Beckmann γ-counter.
When 1n[(Beq - Bt)/(BoLo - Beq Bt)]is plotted as a function of time k1 can be determined from the slope by the following relation k1 =slope x [Beg/(Beg^2 - BoLo)](36) where Bo and Lo are the initial concentrations of receptor and ligand respectively. Bt is the concentration of receptor-ligand complex at time t and Beg is its concentration at equilibrium. Equation (1) takes into account the decrease in free ligand concentration that occurs during the binding reaction.
The first order rate constant of dissociation was determined from the slope of the line obtained by plotting ln(Bt/Beg) as a function of time.
The reactions were terminated and specific binding determined as described in "Experimental Procedures".

Mr 75,000-85,000 protein = biological target: T2, Mr 75,000-85,000 protein (Mus musculus, UniProt P21729); experiment: Chemical cross-linking (EGS) of 125I-GRP to the Mr 75,000-85,000 protein in Swiss 3T3 membranes; format: binding, murine; details: for 125I-GRP affinity labelling of the Mr 75,000-85,000 protein: 0.5 nM 125I-GRP, 37° C., 10 minutes, None 100
T2 construct: Membrane protein (150 μg) prepared from Swiss 3T3 cells as described above; endogenous in cells; host or cells: Swiss 3T3 cells; membrane-enriched fraction prepared with 5 mM Mg2+
Protocol: BSA was omitted from all solutions used in the cross-linking studies. At the end of the incubation the membranes were centrifuged at 1000 rpm for 1 minute in a MSE microfuge at room n temperature. The pellets were then resuspended in cross-linking medium containing 4 mM of the cross-linking reagent (EGS) and incubated at 37° C. or 15° C. for 5 minutes or 15 minutes respectively. The reaction was terminated by centrifugation for 1 minute followed by one wash with cross-linking medium and centrifugation. Samples were solubilised in 0.20 ml of 2× sample buffer, (0.2 M Tris-HCl pH 6.8, 10% (w/v) glycerol, 6% sodium dodecyl sulphate (SDS) (w/v), 4% β-mercaptoethanol (v/v), and 2 mM EDTA), immediately heated to 100° C. for 10 minutes and analysed by one dimensional electrophoresis.
SDS-Polyacrylaaide Gel glectrophoresis: Slab gel electrophoresis was performed using 8% acrylamide in the separating gel and 4% in the stacking gel and 0.1% SDS (37). After electrophoresis gels were stained, desrained and dried down onto paper for autoradiography with Fuji x-ray film. Dried gels were exposed for 2-4 days at -70° C. Autoradiograms were scanned using an LKB ultrascan XL densitometer; and the incorporation of radioactivity into the Mr 75,000-85,000 band was quantified using the Ultroscan XL internal digital integrator.
Following incubation at 37° C. for 10 minutes the membranes were pelleted by centrifugation and chemical cross-linking carried out as described in "Experimental Procedures" using 4 mM EGS. The samples were analyzed by SDS-PAGE and scanning densitometry of the autoradiograms as described in "Experimental Procedures".

[1] = 10 min, read-out: 125I-GRP affinity labelling of the Mr 75,000-85,000 protein
[2] = addition at 1μM, 0.5 nM 125I-GRP, 37° C., 10 minutes, None 305 ± 9, mean±SEM, n=3

T2 sequence (P21729 whole entry): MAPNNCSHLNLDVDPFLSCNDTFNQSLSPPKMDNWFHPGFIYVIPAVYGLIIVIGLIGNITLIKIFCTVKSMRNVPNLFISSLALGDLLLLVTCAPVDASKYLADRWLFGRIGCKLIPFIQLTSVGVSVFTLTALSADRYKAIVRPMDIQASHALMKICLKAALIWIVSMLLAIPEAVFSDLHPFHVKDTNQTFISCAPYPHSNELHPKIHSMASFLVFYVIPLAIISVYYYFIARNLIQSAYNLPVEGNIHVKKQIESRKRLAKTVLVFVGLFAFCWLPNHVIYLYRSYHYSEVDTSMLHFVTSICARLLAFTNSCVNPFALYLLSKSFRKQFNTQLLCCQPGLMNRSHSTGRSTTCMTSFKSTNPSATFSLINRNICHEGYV
T1 sequence (P21729 whole entry): as above

litorin
inhibition of specific binding of 125I-GRP to membrane preparations (bombesin/GRP receptor; concentration-dependent manner): inhibited | 125I-GRP affinity labelling of the Mr 75,000-85,000 protein (Mr 75,000-85,000 protein; addition at 100 nM): 3 ± 1 % of maximum

CSCC[C@H](NC(=O)[C@H](CC(C)C)NC(=O)[C@H](Cc1cnc[nH]1)NC(=O)CNC(=O)[C@@H](NC(=O)[C@H](C)NC(=O)[C@@H](N)Cc1c[nH]c2ccccc12)C(C)C)C(N)=O [bombesin (8-14)]
IC50 (bombesin/GRP receptor): 4 µM | remaining activity at 10 µM (Mr 75,000-85,000 protein; [1]): 5 ± 2%

C[C@H](N)C(=O)NCC(=O)N[C@H]1CSSC[C@@H](C(=O)O)NC(=O)[C@H](CO)NC(=O)[C@H]([C@@H](C)O)NC(=O)[C@H](Cc2ccccc2)NC(=O)[C@H]([C@@H](C)O)NC(=O)[C@H](CCCCN)NC(=O)[C@H](Cc2c[nH]c3ccccc23)NC(=O)[C@H](Cc2ccccc2)NC(=O)[C@H](Cc2ccccc2)NC(=O)[C@H](CC(N)=O)NC(=O)[C@H](CCCCN)NC1=O [Somatostatin, somatostatin]
specific binding of 125I-GRP to membranes (bombesin/GRP receptor; [2]): 308 ± 8 fmole/mg protein

CCCC(=O)O[C@@H]1[C@@H](C)[C@@]2(O)[C@@H](C=C(CO)C[C@]3(O)C(=O)C(C)=C[C@@H]23)[C@@H]2C(C)(C)[C@]12OC(=O)CCC [PBt2, phorbol 12,13-dibutyrate]
specific binding of 125I-GRP to membranes (bombesin/GRP receptor; addition at 400 nM, 0.5 nM 125I-GRP, 37° C., 10 minutes, None 305 ± 9): 305 ± 9 fmole/mg protein | 125I-GRP affinity labelling of the Mr 75,000-85,000 protein (Mr 75,000-85,000 protein; addition at 400 nM): 111 ± 2 % of maximum

substance K
specific binding of 125I-GRP to membranes (bombesin/GRP receptor; [2]): 314 ± 5 fmole/mg protein

EGF: epidermal growth factor
specific binding of 125I-GRP to membranes (bombesin/GRP receptor; addition at 40 nM, 0.5 nM 125I-GRP, 37° C., 10 minutes, None 305 ± 9): 305 ± 6 fmole/mg protein | 125I-GRP affinity labelling of the Mr 75,000-85,000 protein (Mr 75,000-85,000 protein; addition at 40 nM): 108 ± 1 % of maximum

CSCC[C@H](NC(=O)[C@H](CC(C)C)NC(=O)[C@H](Cc1cnc[nH]1)NC(=O)CNC(=O)[C@@H](NC(=O)[C@H](C)NC(=O)[C@H](Cc1c[nH]c2ccccc12)NC(=O)[C@H](CCC(N)=O)NC(=O)[C@H](CC(N)=O)NC(=O)CNC(=O)[C@H](CC(C)C)NC(=O)[C@H](CCCN=C(N)N)NC(=O)[C@H](CCC(N)=O)NC(=O)[C@@H]1CCC(=O)N1)C(C)C)C(N)=O [bombesin]
specific binding of 125I-GRP to membranes (bombesin/GRP receptor): 7 ± 0.2 fmole/mg protein | remaining activity at 0.1 µM (Mr 75,000-85,000 protein; [1]): 5 ± 1%

PDGF: Recombinant platelet derived growth factor c-sis
specific binding of 125I-GRP to membranes (bombesin/GRP receptor; addition at 15 nM, 0.5 nM 125I-GRP, 37° C., 10 minutes, None 305 ± 9): 341 ± 9 fmole/mg protein | 125I-GRP affinity labelling of the Mr 75,000-85,000 protein (Mr 75,000-85,000 protein; addition at 15 nM): 104 ± 1 % of maximum

NC(=O)CC[C@@H]1NC(=O)[C@H](Cc2ccccc2)NC(=O)[C@H](Cc2ccc(O)cc2)NC(=O)[C@@H](N)CSSC[C@@H](C(=O)N2CCC[C@H]2C(=O)N[C@@H](CCCN=C(N)N)C(=O)NCC(N)=O)NC(=O)[C@H](CC(N)=O)NC1=O [Vasopressin, vasopressin]
specific binding of 125I-GRP to membranes (bombesin/GRP receptor; [2]): 353 ± 10 fmole/mg protein | remaining activity at 1 µM (Mr 75,000-85,000 protein; [1]): 102 ± 1%

Insulin: insulin purchased from Sigma
specific binding of 125I-GRP to membranes (bombesin/GRP receptor; addition at 1.5 μM, 0.5 nM 125I-GRP, 37° C., 10 minutes, None 305 ± 9): 332 ± 6 fmole/mg protein | 125I-GRP affinity labelling of the Mr 75,000-85,000 protein (Mr 75,000-85,000 protein; addition at 1.5 μM): 113 ± 3 % of maximum

CSCC[C@H](NC(=O)[C@H](Cc1ccccc1)NC(=O)[C@H](Cc1cnc[nH]1)NC(=O)CNC(=O)[C@@H](NC(=O)[C@H](C)NC(=O)[C@H](Cc1c[nH]c2ccccc12)NC(=O)[C@H](CC(C)C)NC(=O)[C@H](CC(N)=O)NC(=O)CN)[C@@H](C)O)C(N)=O [neuromedin B]
IC50 (bombesin/GRP receptor): 0.18 µM | remaining activity at 1 µM (Mr 75,000-85,000 protein; [1]): 7 ± 2%

vasoactive intestinal peptide [VIP]
specific binding of 125I-GRP to membranes (bombesin/GRP receptor; [2]): 353 ± 10 fmole/mg protein

CC(C)C[C@H](NC(=O)[C@H](CC(C)C)NC(=O)[C@@H](Cc1c[nH]c2ccccc12)NC(=O)[C@H](Cc1ccccc1)NC(=O)[C@@H](Cc1c[nH]c2ccccc12)NC(=O)[C@H](CCC(N)=O)NC(=O)[C@@H](Cc1ccccc1)NC(=O)[C@@H]1CCCN1C(=O)[C@H](CCCCN)NC(=O)[C@@H]1CCCN1C(=O)[C@H](N)CCCN=C(N)N)C(N)=O [antagonist D, D-Arg-Pro-Lys-Pro-D-Phe-Gln-D-Trp-Phe-D-Trp-Leu-Leu-NH2] (H-[dR]PKP[dF]Q[dW]F[dW]LL-NH2)
IC50 (bombesin/GRP receptor; 0.5 nM 125I-GRP, 15° C., 30 minutes): 7 µM
